Measured values reported in PubChem BioAssay AID330 (DTP/NCI, 2004).
Several values for one entry are separate records, joined by “and”; a condition that tells them apart may be missing. Identical values can stand only once. Toxic doses and inconclusive results are not listed.

Test system: P388 leukemia ip, CD2F1 mice, survival T/C
Test: NCI In Vivo Anticancer Drug Screen. Data for tumor model P388 Leukemia (intraperitoneal) in CD2F1 (CDF1) mice
Details: endpoint: median survival time, higher = longer survival
In short: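 Mice carrying the transplanted tumor received test compound or vehicle. Survival was recorded in each group, and the value is the treated-group measurement divided by that of the vehicle-treated control group.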

[1] = dose: 60.0 mg/kg/injection, schedule: Q01DX005 (ip), vehicle: saline with Tween-80
[2] = dose: 120.0 mg/kg/injection, schedule: Q01DX005 (ip), vehicle: saline with Tween-80
[3] = dose: 240.0 mg/kg/injection, schedule: Q01DX005 (ip), vehicle: saline with Tween-80
[4] = dose: 50.0 mg/kg/injection, schedule: Q01DX005 (ip), vehicle: saline with Tween-80
[5] = dose: 100.0 mg/kg/injection, schedule: Q01DX005 (ip), vehicle: saline with Tween-80
[6] = dose: 200.0 mg/kg/injection, schedule: Q01DX005 (ip), vehicle: saline with Tween-80
[7] = dose: 12.5 mg/kg/injection, schedule: Q01DX009 (ip), vehicle: saline
[8] = dose: 25.0 mg/kg/injection, schedule: Q01DX009 (ip), vehicle: saline
[9] = dose: 50.0 mg/kg/injection, schedule: Q01DX009 (ip), vehicle: saline
[10] = dose: 50.0 mg/kg/injection, schedule: Q01DX009 (ip), vehicle: Klucel (hydroxypropylcellulose) (HPC)
[11] = dose: 100.0 mg/kg/injection, schedule: Q01DX009 (ip), vehicle: Klucel (hydroxypropylcellulose) (HPC)
[12] = dose: 200.0 mg/kg/injection, schedule: Q01DX009 (ip), vehicle: Klucel (hydroxypropylcellulose) (HPC)
[13] = dose: 100.0 mg/kg/injection, schedule: Q01DX009 (ip), vehicle: saline
[14] = dose: 200.0 mg/kg/injection, schedule: Q01DX009 (ip), vehicle: saline
[15] = dose: 25.0 mg/kg/injection, schedule: Q01DX009 (ip), vehicle: saline with Tween-80
[16] = dose: 50.0 mg/kg/injection, schedule: Q01DX009 (ip), vehicle: saline with Tween-80
[17] = dose: 100.0 mg/kg/injection, schedule: Q01DX009 (ip), vehicle: saline with Tween-80

For `CCOC(=O)N(CCN(C(=O)OCC)C1CCCCC1)C1CCCCC1`, the T/C [1] was 99 % of control, the T/C (dose: 100.0 mg/kg/injection, schedule: Q04DX002 (ip), vehicle: saline with Tween-80) was 100 % of control and the T/C [2] was 99 % of control. For the same molecule, the T/C (dose: 200.0 mg/kg/injection, schedule: Q04DX002 (ip), vehicle: saline with Tween-80) was 90 % of control, the T/C [3] was 89 % of control and the T/C (dose: 400.0 mg/kg/injection, schedule: Q04DX002 (ip), vehicle: saline with Tween-80) was 89 % of control.

In the case of `O=C1C2Nc3ccccc3N=C2OC1c1cccc([N+](=O)[O-])c1` (stereo not drawn), the T/C (dose: 60.0 mg/kg/injection, schedule: Q01DX005 (ip), vehicle: Klucel + Tween-80) is reported as 107 % of control, the T/C (dose: 120.0 mg/kg/injection, schedule: Q01DX005 (ip), vehicle: Klucel + Tween-80) is reported as 97 % of control and the T/C (dose: 240.0 mg/kg/injection, schedule: Q01DX005 (ip), vehicle: Klucel + Tween-80) is reported as 91 % of control.

For `CCOC(=O)N1C=CC=C(Br)C1C#N` (stereo not drawn), the T/C [4] was 114 % of control.

`Cc1[nH]nc2c1NC(=O)OC(C)(C)C2` was tested, and the T/C [4] was 106 % of control, the T/C [5] was 99 % of control and the T/C [6] was 101 % of control.

`C[N+]12CC[N+](C)(CC1)CC2` was tested, and the T/C [7] was 101 % of control, the T/C [8] was 109 % of control and the T/C [9] was 115 % of control.

With `CC(=C\c1ccc(Cl)c(Cl)c1)/C(C)=N/NC(N)=Nc1ccccc1` the T/C (dose: 25.0 mg/kg/injection, schedule: Q04DX002 (ip), vehicle: saline with Tween-80) was 105 % of control and the T/C (dose: 50.0 mg/kg/injection, schedule: Q04DX002 (ip), vehicle: saline with Tween-80) was 103 % of control.

For `Cc1ccc(N=S(C)(C)=O)cc1`, the T/C (dose: 100.0 mg/kg/injection, schedule: Q01DX001 (ip), vehicle: saline with Tween-80) was 103 % of control, the T/C (dose: 200.0 mg/kg/injection, schedule: Q01DX001 (ip), vehicle: saline with Tween-80) was 104 % of control and the T/C (dose: 400.0 mg/kg/injection, schedule: Q01DX001 (ip), vehicle: saline with Tween-80) was 102 % of control.

For `c1ccc(CN2CSC3CCCCC32)cc1` (stereo not drawn), the T/C (dose: 25.0 mg/kg/injection, schedule: Q01DX005 (ip), vehicle: saline) was 102 % of control, the T/C (dose: 50.0 mg/kg/injection, schedule: Q01DX005 (ip), vehicle: saline) was 109 % of control and 110 % of control and the T/C (dose: 100.0 mg/kg/injection, schedule: Q01DX005 (ip), vehicle: saline) was 107 % of control and 118 % of control. For the same molecule, the T/C (dose: 200.0 mg/kg/injection, schedule: Q01DX005 (ip), vehicle: saline) was 120 % of control.

In the case of `CCOC(=O)C(SC(Cl)(S(=O)(=O)c1ccccc1)S(=O)(=O)c1ccccc1)C(=O)OCC`, the T/C (dose: 25.0 mg/kg/injection, schedule: Q01DX009 (ip), vehicle: Klucel (hydroxypropylcellulose) (HPC)) is reported as 105 % of control and 109 % of control, the T/C [10] is reported as 116 % of control and 120 % of control and 121 % of control and the T/C [11] is reported as 115 % of control and 116 % of control and 124 % of control. The T/C [12] was 110 % of control and 120 % of control and 121 % of control and the T/C (dose: 400.0 mg/kg/injection, schedule: Q01DX009 (ip), vehicle: Klucel (hydroxypropylcellulose) (HPC)) was 109 % of control.

With `CC12CCCC([N+](=O)[O-])(C1)NC(=O)C2C#N` (stereo not drawn) the T/C (dose: 60.0 mg/kg/injection, schedule: Q01DX005 (ip), vehicle: Klucel (hydroxypropylcellulose) (HPC)) was 108 % of control, the T/C (dose: 120.0 mg/kg/injection, schedule: Q01DX005 (ip), vehicle: Klucel (hydroxypropylcellulose) (HPC)) was 95 % of control and the T/C (dose: 240.0 mg/kg/injection, schedule: Q01DX005 (ip), vehicle: Klucel (hydroxypropylcellulose) (HPC)) was 100 % of control.

For `CNC(=O)N(N=O)c1[nH]c(=O)ncc1Br`, the T/C (dose: 50.0 mg/kg/injection, schedule: Q01DX005 (ip), vehicle: saline + Tween-80 + alcohol) was 104 % of control, the T/C (dose: 100.0 mg/kg/injection, schedule: Q01DX005 (ip), vehicle: saline + Tween-80 + alcohol) was 108 % of control and the T/C (dose: 200.0 mg/kg/injection, schedule: Q01DX005 (ip), vehicle: saline + Tween-80 + alcohol) was 118 % of control.

In the case of `Nc1nc2c(ncn2C2OC(CO)C(O)C2O)c(=O)[nH]1.Nc1nc2c(ncn2C2OC(CO)C(O)C2O)c(=O)[nH]1.[NH2-].[NH2-].[Pt+2]` (stereo not drawn), the T/C (dose: 6.25 mg/kg/injection, schedule: Q01DX009 (ip), vehicle: saline) is reported as 101 % of control, the T/C [7] is reported as 100 % of control and 108 % of control and the T/C [8] is reported as 100 % of control and 107 % of control. The T/C [9] was 100 % of control and 113 % of control and 107 % of control, the T/C (dose: 50.0 mg/kg/injection, schedule: Q01DX009 (ip), vehicle: water) was 175 % of control and the T/C (dose: 50.0 mg/kg/injection, schedule: Q04DX003 (ip), vehicle: saline) was 100 % of control. The T/C [13] was 112 % of control and 121 % of control and 116 % of control, the T/C (dose: 100.0 mg/kg/injection, schedule: Q01DX009 (ip), vehicle: water) was 174 % of control and the T/C (dose: 100.0 mg/kg/injection, schedule: Q04DX003 (ip), vehicle: saline) was 120 % of control. The T/C [14] was 163 % of control and 177 % of control, the T/C (dose: 200.0 mg/kg/injection, schedule: Q04DX003 (ip), vehicle: saline) was 110 % of control and the T/C (dose: 400.0 mg/kg/injection, schedule: Q01DX009 (ip), vehicle: saline) was 224 % of control and 227 % of control.

`CCO[Si](CCCCl)(OCC)OCC` was tested, and the T/C [10] was 100 % of control, the T/C [11] was 106 % of control and the T/C [12] was 118 % of control.

With `Cc1coc2c1C1OC(=O)C3(C/C=C\C(C)C2)OC13` (stereo not drawn) the T/C (dose: 5625.0 micrograms/kg/injection, schedule: Q01DX005 (ip), vehicle: Klucel (hydroxypropylcellulose) (HPC)) was 100 % of control, the T/C (dose: 11250.0 micrograms/kg/injection, schedule: Q01DX005 (ip), vehicle: Klucel (hydroxypropylcellulose) (HPC)) was 100 % of control and the T/C (dose: 22500.0 micrograms/kg/injection, schedule: Q01DX005 (ip), vehicle: Klucel (hydroxypropylcellulose) (HPC)) was 100 % of control.

With `c1ccc(OCc2nn3c(-c4ccccc4)nnc3s2)cc1` the T/C [1] was 107 % of control, the T/C [2] was 94 % of control and the T/C [3] was 93 % of control.

`COc1ccc(CN)cc1OC` was tested, and the T/C [13] was 100 % of control and the T/C [14] was 105 % of control.

For `O=[N+]([O-])c1ccc(N2CCCC2)c([N+](=O)[O-])c1`, the T/C [15] was 100 % of control, the T/C [16] was 104 % of control and the T/C [17] was 100 % of control. For the same molecule, the T/C (dose: 200.0 mg/kg/injection, schedule: Q01DX009 (ip), vehicle: saline with Tween-80) was 100 % of control.

`Cc1nnn(NC(=O)Cc2ccccc2)c1C` was tested, and the T/C (dose: 100.0 mg/kg/injection, schedule: Q01DX001 (ip), vehicle: Klucel (hydroxypropylcellulose) (HPC)) was 98 % of control, the T/C (dose: 200.0 mg/kg/injection, schedule: Q01DX001 (ip), vehicle: Klucel (hydroxypropylcellulose) (HPC)) was 99 % of control and the T/C (dose: 400.0 mg/kg/injection, schedule: Q01DX001 (ip), vehicle: Klucel (hydroxypropylcellulose) (HPC)) was 99 % of control.

In the case of `CN(C)c1ccc(C(Cc2ccc3ccccc3n2)Cc2ccc3ccccc3n2)cc1`, the T/C [4] is reported as 99 % of control, the T/C [5] is reported as 88 % of control and the T/C [6] is reported as 89 % of control.

`C=C(C)Cn1c(=O)n(CC)c(=O)c2[nH]c(Cl)nc21` was tested, and the T/C (dose: 16.0 mg/kg/injection, schedule: Q01DX009 (ip), vehicle: Klucel (hydroxypropylcellulose) (HPC)) was 108 % of control, the T/C (dose: 32.0 mg/kg/injection, schedule: Q01DX009 (ip), vehicle: Klucel (hydroxypropylcellulose) (HPC)) was 107 % of control and the T/C [10] was 95 % of control. The T/C (dose: 64.0 mg/kg/injection, schedule: Q01DX009 (ip), vehicle: Klucel (hydroxypropylcellulose) (HPC)) was 117 % of control, the T/C [11] was 100 % of control and the T/C [12] was 101 % of control.

For `NC(Cc1ccccc1Br)c1nn[nH]n1` (stereo not drawn), the T/C [15] was 97 % of control, the T/C [16] was 104 % of control and the T/C [17] was 114 % of control.

For `C=C1C(=O)C23C(O)CC4C(C)(C)[C@@H](OC(C)=O)CCC4(C)[C@]2(O)CCC1[C@@H]3O` (stereo partly drawn), the T/C (dose: 5.0 mg/kg/injection, schedule: Q01DX005 (ip), vehicle: Klucel (hydroxypropylcellulose) (HPC)) was 106 % of control, the T/C (dose: 10.0 mg/kg/injection, schedule: Q01DX005 (ip), vehicle: Klucel (hydroxypropylcellulose) (HPC)) was 110 % of control and the T/C (dose: 20.0 mg/kg/injection, schedule: Q01DX005 (ip), vehicle: Klucel (hydroxypropylcellulose) (HPC)) was 112 % of control. The T/C (dose: 40.0 mg/kg/injection, schedule: Q01DX005 (ip), vehicle: Klucel (hydroxypropylcellulose) (HPC)) was 114 % of control.

In the case of `CCCCN1C(=O)CC(=O)N(c2ccccc2)C1=O`, the T/C [9] is reported as 99 % of control, the T/C [13] is reported as 103 % of control and the T/C [14] is reported as 93 % of control.

With `N#Cc1c(N)nsc1N1CCOCC1` the T/C (dose: 12.5 mg/kg/injection, schedule: Q01DX005 (ip), vehicle: saline with Tween-80) was 98 % of control, the T/C (dose: 25.0 mg/kg/injection, schedule: Q01DX005 (ip), vehicle: saline with Tween-80) was 104 % of control and the T/C [4] was 98 % of control.
